Experimental data reported in patent US7109193B2, “Tricyclic diazepines tocolytic oxytocin receptor antagonists” (Wyeth, priority 2001, dated 2006).

Target: T1, human oxytocin receptor (Homo sapiens, UniProt P30559)
T1 construct: host or cells: CHO cells (pcDNA3.1 vector)
T1 sequence (P30559 1-389): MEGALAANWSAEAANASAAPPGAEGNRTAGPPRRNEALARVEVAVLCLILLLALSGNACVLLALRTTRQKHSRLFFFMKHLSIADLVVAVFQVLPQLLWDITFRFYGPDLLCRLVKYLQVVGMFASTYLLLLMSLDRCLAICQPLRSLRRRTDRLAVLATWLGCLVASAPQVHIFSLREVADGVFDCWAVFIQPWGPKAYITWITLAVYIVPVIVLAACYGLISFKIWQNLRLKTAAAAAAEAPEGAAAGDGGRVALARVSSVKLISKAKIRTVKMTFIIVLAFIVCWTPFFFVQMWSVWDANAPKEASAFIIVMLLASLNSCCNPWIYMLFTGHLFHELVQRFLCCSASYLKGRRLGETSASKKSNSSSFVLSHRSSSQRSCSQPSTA
Test: Oxytocin binding in Chinese Hamster Ovary cell membranes expressing human oxytocin receptors
Conditions: 100 nM, CHO cell membranes, [3H]oxytocin, values without parentheses, read-out: OT % inhibition @ 100% nM

Point of comparison: `Cc1cc(C(=O)N2Cc3ccc(C(=O)N4CCN(CCCN(C)C)CC4)n3Cc3ccccc32)ccc1-c1ccccc1C(F)(F)F` [Example 257, {10-[(2-Methyl-2′-trifluoromethyl-[1,1′-biphenyl]-4-yl)carbonyl]-10,11-dihydro-5H-pyrrolo[2,1-c][1,4]benzodiazepin-3-yl}{4-[3-(dimethylamino)propyl]-1-piperazinyl}-methanone], inhibition at 0.1 µM 85%. Against it:
- COc1cccc(-c2ccc(C(=O)N3Cc4ccc(C(=O)NCCCN(C)C)n4Cc4ccccc43)cc2C)c1 [Example 74, N-[3-(Dimethylamino)propyl]-10-[(3′-methoxy-2-methyl[1,1′-biphenyl]-4-yl)carbonyl]-10,11-dihydro-5H-pyrrolo[2,1-c][1,4]benzodiazepine-3-carboxamide] — lower, 45%
- COc1ccccc1-c1ccc(C(=O)N2Cc3ccc(C(=O)NCCCN(C)C)n3Cc3ccccc32)cc1 [Example 75, N-[3-(Dimethylamino)propyl]-10-[(2′-methoxy[1,1′-biphenyl]-4-yl)carbonyl]-10,11-dihydro-5H-pyrrolo[2,1-c][1,4]benzodiazepine-3-carboxamide] — lower, 66%
- Cc1ccccc1-c1ccc(C(=O)N2Cc3ccc(C(=O)NCCCN(C)C)n3Cc3ccccc32)cc1 [Example 76, N-[3-(Dimethylamino)propyl]-10-[(2′-methyl[1,1′-biphenyl]-4-yl)carbonyl]-10,11-dihydro-5H-pyrrolo[2,1-c][1,4]benzodiazepine-3-carboxamide] — lower, 65%
- COc1cc(C(=O)N2Cc3ccc(C(=O)NCCCN(C)C)n3Cc3ccccc32)ccc1-c1ccccc1C [Example 77, N-[3-(Dimethylamino)propyl]-10-[(2-methoxy-2′-methyl[1,1′-biphenyl]-4-yl)carbonyl]-10,11-dihydro-5H-pyrrolo[2,1-c][1,4]benzodiazepine-3-carboxamide] — lower, 65%
- COc1cc(-c2ccccc2C)c(Cl)cc1C(=O)N1Cc2ccc(C(=O)NCCCN(C)C)n2Cc2ccccc21 [Example 78, 10-[(6-Chloro-3-methoxy-2′-methyl[1,1′-biphenyl]-4-yl)carbonyl]-N-[3-(dimethylamino)propyl]-10,11-dihydro-5H-pyrrolo[2,1-c][1,4]benzodiazepine-3-carboxamide] — lower, 62%
- CC(C)N1CCN(C(=O)c2ccc3n2Cc2ccccc2N(C(=O)c2ccc(-c4cccc5ccccc45)cc2Cl)C3)CC1 [Example 243, {10-[2-Chloro-4-(1-naphthyl)benzoyl]-10,11-dihydro-5H-pyrrolo[2,1-c][1,4]benzodiazepin-3-yl}(4-isopropyl-1-piperazinyl)methanone] — lower, 17%
- Cc1ccccc1-c1ccc(C(=O)N2Cc3ccc(C(=O)N4CCN(CCCN(C)C)CC4)n3Cc3ccccc32)cc1C [Example 247, {4-[3-(Dimethylamino)propyl]-1-piperazinyl}{10-[(2,2′-dimethyl[1,1′-biphenyl]-4-yl)carbonyl]-10,11-dihydro-5H-pyrrolo[2,1-c][1,4]benzodiazepin-3-yl}methanone] — higher, 97%
- COc1cccc(-c2ccc(C(=O)N3Cc4ccc(C(=O)N5CCN(CCCN(C)C)CC5)n4Cc4ccccc43)cc2C)c1 [Example 248, {4-[3-(Dimethylamino)propyl]-1-piperazinyl}{10-[(3′-methoxy-2-methyl[1,1′-biphenyl]-4-yl)carbonyl]-10,11-dihydro-5H-pyrrolo[2,1-c][1,4]benzodiazepin-3-yl}methanone] — lower, 77%
- Cc1ccccc1-c1ccc(C(=O)N2Cc3ccc(C(=O)N4CCN(CCCN(C)C)CC4)n3Cc3ccccc32)cc1 [Example 249, {4-[3-(Dimethylamino)propyl]-1-piperazinyl}{10-[(2′-methyl[1,1′-biphenyl]-4-yl)carbonyl]-10,11-dihydro-5H-pyrrolo[2,1-c][1,4]benzodiazepin-3-yl}methanone] — lower, 18%
- COc1cc(C(=O)N2Cc3ccc(C(=O)N4CCN(CCCN(C)C)CC4)n3Cc3ccccc32)ccc1-c1ccccc1C [Example 250, {4-[3-(Dimethylamino)propyl]-1-piperazinyl}{10-[(2-methoxy-2′-methyl[1,1′-biphenyl]-4-yl)carbonyl]-10,11-dihydro-5H-pyrrolo[2,1-c][1,4]benzodiazepin-3-yl}methanone] — higher, 87%
- COc1cc(-c2ccccc2C)c(Cl)cc1C(=O)N1Cc2ccc(C(=O)N3CCN(CCCN(C)C)CC3)n2Cc2ccccc21 [Example 251, {10-[(6-Chloro-3-methoxy-2′-methyl[1,1′-biphenyl]-4-yl)carbonyl]-10,11-dihydro-5H-pyrrolo[2,1-c][1,4]benzodiazepin-3-yl}{4-[3-(dimethylamino)propyl]-1-piperazinyl}methanone] — higher, 87%
- COc1cccc(-c2cc(OC)c(C(=O)N3Cc4ccc(C(=O)N5CCN(CCCN(C)C)CC5)n4Cc4ccccc43)cc2Cl)c1 [Example 252, {10-[(6-Chloro-3,3′-dimethoxy[1,1′-biphenyl]-4-yl)carbonyl]-10,11-dihydro-5H-pyrrolo[2,1-c][1,4]benzodiazepin-3-yl}{4-[3-(dimethylamino)propyl]-1-piperazinyl}methanone] — lower, 72%
- COc1cc(C(=O)N2Cc3ccc(C(=O)N4CCN(CCCN(C)C)CC4)n3Cc3ccccc32)ccc1-c1cccc2ccccc12 [Example 253, {4-[3-(Dimethylamino)propyl]-1-piperazinyl}{10-[3-methoxy-4-(1-naphthyl)benzoyl]-10,11-dihydro-5H-pyrrolo[2,1-c][1,4]benzodiazepin-3-yl}methanone] — lower, 71%
- COc1ccccc1-c1ccc(C(=O)N2Cc3ccc(C(=O)N4CCN(CCCN(C)C)CC4)n3Cc3ccccc32)cc1OC [Example 254, {10-[(2,2′-Dimethoxy[1,1′-biphenyl]-4-yl)carbonyl]-10,11-dihydro-5H-pyrrolo[2,1-c][1,4]benzodiazepin-3-yl}{4-[3-(dimethylamino)propyl]-1-piperazinyl}methanone] — lower, 66%
- COc1cccc(-c2ccc(C(=O)N3Cc4ccc(C(=O)N5CCN(CCCN(C)C)CC5)n4Cc4ccccc43)cc2OC)c1 [Example 255, {10-[(2,3′-Dimethoxy[1,1′-biphenyl]-4-yl)carbonyl]-10,11-dihydro-5H-pyrrolo[2,1-c][1,4]benzodiazepin-3-yl}{4-[3-(dimethylamino)propyl]-1-piperazinyl}methanone] — lower, 80%
- CN(C)CCCN1CCN(C(=O)c2ccc3n2Cc2ccccc2N(C(=O)c2ccc(-c4cccc5ccccc45)cc2Cl)C3)CC1 [Example 256, {10-[2-Chloro-4-(1-naphthyl)benzoyl]-10,11-dihydro-5H-pyrrolo[2,1-c][1,4]benzodiazepin-3-yl}{4-[3-(dimethylamino)propyl]-1-piperazinyl}methanone] — lower, 33%
- Cc1cc(C(=O)N2Cc3ccc(C(=O)N[C@@H](Cc4c[nH]cn4)C(N)=O)n3Cc3ccccc32)ccc1-c1ccccc1C(F)(F)F [Example 284, N-[(1S)-2-Amino-1-(1H-imidazol-4-ylmethyl)-2-oxoethyl]-10-{[2-methyl-2′-(trifluoromethyl)[1,1′-biphenyl]-4-yl]carbonyl}-10,11-dihydro-5H-pyrrolo[2,1-c][1,4]benzodiazepine-3-carboxamide] — higher, 87%
- COc1ccccc1-c1ccc(C(=O)N2Cc3ccc(C(=O)N[C@@H](Cc4c[nH]cn4)C(N)=O)n3Cc3ccccc32)cc1 [Example 285, N-[(1S)-2-Amino-1-(1H-imidazol-4-ylmethyl)-2-oxoethyl]-10-[(2′-methoxy[1,1′-biphenyl]-4-yl)carbonyl]-10,11-dihydro-5H-pyrrolo[2,1-c][1,4]benzodiazepine-3-carboxamide] — higher, 93%
- COc1ccccc1-c1ccc(C(=O)N2Cc3ccc(C(=O)N[C@@H](Cc4c[nH]cn4)C(N)=O)n3Cc3ccccc32)cc1OC [Example 286, N-[(1S)-2-Amino-1-(1H-imidazol-4-ylmethyl)-2-oxoethyl]-10-[(2,2′-dimethoxy[1,1′-biphenyl]-4-yl)carbonyl]-10,11-dihydro-5H-pyrrolo[2,1-c][1,4]benzodiazepine-3-carboxamide] — higher, 86%
- COc1cccc(-c2cc(OC)c(C(=O)N3Cc4ccc(C(=O)N[C@@H](Cc5c[nH]cn5)C(N)=O)n4Cc4ccccc43)cc2Cl)c1 [Example 287, N-[(1S)-2-Amino-1-(1H-imidazol-4-ylmethyl)-2-oxoethyl]-10-[(6-chloro-3,3′-dimethoxy[1,1′-biphenyl]-4-yl)carbonyl]-10,11-dihydro-5H-pyrrolo[2,1-c][1,4]benzodiazepine-3-carboxamide] — higher, 88%
- COc1ccccc1-c1ccc(C(=O)N2Cc3ccc(C(=O)N[C@@H](Cc4c[nH]cn4)C(N)=O)n3Cc3ccccc32)cc1C [Example 288, N-[(1S)-2-Amino-1-(1H-imidazol-4-ylmethyl)-2-oxoethyl]-10-[(2′-methoxy-2-methyl[1,1′-biphenyl]4-yl)carbonyl]-10,11-dihydro-5H-pyrrolo[2,1-c][1,4]benzodiazepine-3-carboxamide] — higher, 95%
- COc1cccc(-c2ccc(C(=O)N3Cc4ccc(C(=O)n5ccnc5)n4Cc4ccccc43)cc2C)c1 [Example 289, 1H-Imidazol-1-yl-{10-[(3′-methoxy-2-methyl[1,1′-biphenyl]-4-yl)carbonyl]-10,11-dihydro-5H-pyrrolo[2,1-c][1,4]benzodiazepin-3-yl}methanone] — lower, 45%
- COc1cc(C(=O)N2Cc3ccc(C(=O)n4ccnc4)n3Cc3ccccc32)ccc1-c1ccccc1C [Example 290, 1H-Imidazol-1-yl-{10-[(2-methoxy-2′-methyl[1,1′-biphenyl]-4-yl)carbonyl]-10,11-dihydro-5H-pyrrolo[2,1-c][1,4]benzodiazepin-3-yl}methanone] — lower, 78%
